From ChEMBL document CHEMBL1147909, “Methylenedisalicylic acid derivatives: new PTP1B inhibitors that confer resistance to diet-induced obesity” (Bioorg Med Chem Lett, 2007)

How the values were obtained:
[1] = target: T1, Tyrosine-protein phosphatase non-receptor type 1 (Homo sapiens, UniProt P18031); assay: Inhibition of PTP1B after 10 mins
T1 sequence (P18031 whole entry): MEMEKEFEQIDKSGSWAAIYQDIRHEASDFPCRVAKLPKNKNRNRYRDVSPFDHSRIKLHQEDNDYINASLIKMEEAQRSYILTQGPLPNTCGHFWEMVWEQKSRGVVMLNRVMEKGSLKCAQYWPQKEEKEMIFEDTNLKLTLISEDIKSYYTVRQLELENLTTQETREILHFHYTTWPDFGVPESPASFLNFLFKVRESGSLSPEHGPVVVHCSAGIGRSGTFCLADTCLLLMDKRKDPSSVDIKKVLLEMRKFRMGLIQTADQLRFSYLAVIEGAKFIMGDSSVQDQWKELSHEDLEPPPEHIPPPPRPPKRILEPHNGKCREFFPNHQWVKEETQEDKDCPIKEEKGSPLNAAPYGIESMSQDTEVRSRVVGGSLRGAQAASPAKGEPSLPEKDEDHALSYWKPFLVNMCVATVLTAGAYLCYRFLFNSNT

[2] = target: T2, Tyrosine-protein phosphatase non-receptor type 2 (Homo sapiens, UniProt P17706); assay: Inhibition of TC-PTP
T2 sequence (P17706 whole entry): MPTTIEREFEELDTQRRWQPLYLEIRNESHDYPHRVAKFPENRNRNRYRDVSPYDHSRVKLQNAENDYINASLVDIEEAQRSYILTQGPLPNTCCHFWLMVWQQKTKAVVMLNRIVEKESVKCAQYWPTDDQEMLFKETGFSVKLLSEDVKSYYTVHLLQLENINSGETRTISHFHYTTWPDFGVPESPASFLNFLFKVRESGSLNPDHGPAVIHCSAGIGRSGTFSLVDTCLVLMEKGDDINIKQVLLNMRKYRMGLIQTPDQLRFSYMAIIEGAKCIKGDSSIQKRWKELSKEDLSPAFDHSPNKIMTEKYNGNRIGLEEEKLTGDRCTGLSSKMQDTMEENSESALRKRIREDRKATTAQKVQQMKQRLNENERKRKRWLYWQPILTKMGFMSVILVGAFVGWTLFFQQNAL

Homo sapiens = organism: Homo sapiens; assay: Selectivity for PTP1B over TC-PTP
[3] = Inhibition of LAR Tyrosine phosphatase D1; design: species or system Homo sapiens
[4] = target: Tyrosine-protein phosphatase non-receptor type 6 (Homo sapiens, UniProt P29350); assay: Inhibition of SHP-1 catalytic domain
Mus musculus [5] = assay: Effect on high fat diet induced obesity in C57BL/6J Jms Slc mouse assessed as retroperitoneal adipose tissue weight at 5 g/kg; format: functional
[6] = target: T3, Tyrosine-protein phosphatase 1 (Saccharomyces cerevisiae S288c, UniProt P25044); assay: Inhibition of yeast PTP1
T3 sequence (P25044 whole entry): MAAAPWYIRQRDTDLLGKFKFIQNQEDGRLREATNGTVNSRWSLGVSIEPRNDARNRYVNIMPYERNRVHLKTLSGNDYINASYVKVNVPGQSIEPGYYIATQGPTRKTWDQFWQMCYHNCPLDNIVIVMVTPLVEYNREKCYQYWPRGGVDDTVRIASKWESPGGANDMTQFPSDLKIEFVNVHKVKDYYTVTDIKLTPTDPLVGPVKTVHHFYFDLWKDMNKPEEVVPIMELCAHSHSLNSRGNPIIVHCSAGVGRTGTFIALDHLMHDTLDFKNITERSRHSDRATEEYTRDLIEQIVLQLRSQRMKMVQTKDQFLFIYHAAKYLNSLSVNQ

Mus musculus [7] = assay: Effect on high fat diet induced obesity in C57BL/6J Jms Slc mouse assessed as epididymal adipose tissue weight at 5 g/kg; format: functional
Mus musculus [8] = assay: Effect on high fat diet induced obesity in C57BL/6J Jms Slc mouse assessed as body weight at 5 g/kg; format: functional
Mus musculus [9] = assay: Effect on high fat diet induced obesity in C57BL/6J Jms Slc mouse assessed as liver weight at 5 g/kg; format: functional

Tyrosine-protein phosphatase non-receptor type 6, sequence (P29350 whole entry, the tested form may be a part): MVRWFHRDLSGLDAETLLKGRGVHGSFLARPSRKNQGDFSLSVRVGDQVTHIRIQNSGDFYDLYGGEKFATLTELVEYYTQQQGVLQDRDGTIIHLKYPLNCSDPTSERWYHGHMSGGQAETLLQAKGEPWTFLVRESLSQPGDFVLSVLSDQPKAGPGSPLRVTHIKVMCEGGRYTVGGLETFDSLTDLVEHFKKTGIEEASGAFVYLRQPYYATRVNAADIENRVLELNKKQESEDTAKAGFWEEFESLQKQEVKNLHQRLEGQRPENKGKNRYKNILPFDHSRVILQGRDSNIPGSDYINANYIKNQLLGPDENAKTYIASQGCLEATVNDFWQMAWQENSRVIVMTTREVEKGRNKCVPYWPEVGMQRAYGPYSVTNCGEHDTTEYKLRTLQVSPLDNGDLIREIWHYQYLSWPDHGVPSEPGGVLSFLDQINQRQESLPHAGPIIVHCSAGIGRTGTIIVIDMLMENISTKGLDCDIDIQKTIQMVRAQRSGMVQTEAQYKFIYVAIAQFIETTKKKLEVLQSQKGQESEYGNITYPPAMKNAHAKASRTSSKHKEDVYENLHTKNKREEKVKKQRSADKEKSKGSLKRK

O=C(O)c1cc(Cc2cc(Cl)c(O)c(C(=O)O)c2)cc(Cl)c1O gave an IC50 [1] of 242 µM.
With COc1cc(Cc2cc(OC)c(O)c(C(=O)O)c2)cc(C(=O)O)c1O the IC50 [1] was > 1000 µM.
O=C(O)c1cc(Cc2cc(Br)c(O)c(C(=O)O)c2)cc(Br)c1O gave an IC50 [1] of 78 µM.
O=C(O)C(=O)Nc1sc2c(c1C(=O)O)CCNC2 gave an IC50 [1] of 500 µM and a Ki [1] of 11.5 µM.
In the case of O=C(O)c1cc(Cc2cc(C(=O)O)c(O)c(-c3ccccc3)c2)cc(-c2ccccc2)c1O, the IC50 [2] is reported as 291 µM, the Ki [2] is reported as 64 µM and the Selectivity ratio (Homo sapiens) is reported as > 10. The IC50 [3] was > 2000 µM, the IC50 [1] was 20 µM and the Ki [1] was 9.4 µM. It also gave an IC50 [4] of 51 µM, a Ki [4] of 17 µM and an Activity (Mus musculus [5]) of 0.26 g. For the same molecule, the IC50 [6] was 234 µM, the Activity (Mus musculus [7]) was 0.86 g and the Activity (Mus musculus [8]) was 29.2 g. The Activity (Mus musculus [9]) was 1.03 g.
Molecule O=C(O)c1cc(Cc2cc(C(=O)O)c(O)c(-c3ccco3)c2)cc(-c2ccco2)c1O has an IC50 [1] of 39 µM.
In the case of O=C(O)c1cc(Cc2cc(Cc3ccccc3)c(O)c(C(=O)O)c2)cc(Cc2ccccc2)c1O, the IC50 [2] is reported as 146 µM, the Ki [2] is reported as 25 µM and the Selectivity ratio (Homo sapiens) is reported as > 10. The IC50 [3] was > 2000 µM, the IC50 [1] was 15 µM and the Ki [1] was 6.3 µM. The IC50 [4] was 32 µM, the Ki [4] was 14 µM and the IC50 [6] was 103 µM.
In the case of Cc1cc(Cc2cc(C)c(O)c(C(=O)O)c2)cc(C(=O)O)c1O, the IC50 [1] is reported as > 1000 µM.
